From publication PMC4946998 (Journal of cellular physiology, 2016)
Read-outs that look alike come from different tables or passages of the source.

What was measured:
MMP-2 = MMP-2 (Homo sapiens, UniProt P08253); conditions: read-out: IC50 MMP-2; average of three determinations, SD <10%
MMP-1 = MMP-1 (Homo sapiens, UniProt P03956); conditions: read-out: IC50 MMP-1; average of three determinations, SD <10%
[1] = system: corneal epithelial defect; conditions: CM; for wound healing: day 5
[2] = system: inflammatory cytokines and MMPs in the cornea; conditions: naïve WT mice, CAM12 IP QD for 5 days versus PBS; data not shown
MMP-3 = MMP-3 (Homo sapiens, UniProt P08254); conditions: read-out: IC50 MMP-3; average of three determinations, SD <10%
MMP-9 = MMP-9 (Homo sapiens, UniProt P14780); conditions: read-out: IC50 MMP-9; average of three determinations, SD <10%
MMP-8 = MMP-8 (Homo sapiens, UniProt P22894); conditions: read-out: IC50 MMP-8; average of three determinations, SD <10%
corneal opacity [3] = conditions: CM
[4] = system: IL-1β, IL-6, CXCL1, MMPs -1,-3,-9,-13 mRNA transcripts
MMP-14 cd = MMP-14 cd (Homo sapiens, UniProt P50281); conditions: read-out: IC50 MMP-14; average of three determinations, SD <10%
corneal opacity [5] = conditions: WT, CM, 2D post injury; ref Bian et al., 2016; cited from earlier work
[6] = system: MMP-1 immunoreactivity; Gr-1+ cells; conditions: WT mice, CM, topical Dex; not in MMP-8KO mice

Chain of MMP-1 (P03956 100-469): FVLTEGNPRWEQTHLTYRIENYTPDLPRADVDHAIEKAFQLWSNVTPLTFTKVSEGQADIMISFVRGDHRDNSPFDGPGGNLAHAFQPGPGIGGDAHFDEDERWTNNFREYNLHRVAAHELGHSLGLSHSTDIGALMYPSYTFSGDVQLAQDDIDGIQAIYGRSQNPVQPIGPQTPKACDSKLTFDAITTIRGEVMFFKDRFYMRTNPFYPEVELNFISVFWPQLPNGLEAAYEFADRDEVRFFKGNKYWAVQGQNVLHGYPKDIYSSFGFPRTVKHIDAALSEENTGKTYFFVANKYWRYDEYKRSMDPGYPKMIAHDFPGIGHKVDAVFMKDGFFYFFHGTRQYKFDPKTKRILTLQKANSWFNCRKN
Chain of MMP-9 (P14780 107-707 limits assumed): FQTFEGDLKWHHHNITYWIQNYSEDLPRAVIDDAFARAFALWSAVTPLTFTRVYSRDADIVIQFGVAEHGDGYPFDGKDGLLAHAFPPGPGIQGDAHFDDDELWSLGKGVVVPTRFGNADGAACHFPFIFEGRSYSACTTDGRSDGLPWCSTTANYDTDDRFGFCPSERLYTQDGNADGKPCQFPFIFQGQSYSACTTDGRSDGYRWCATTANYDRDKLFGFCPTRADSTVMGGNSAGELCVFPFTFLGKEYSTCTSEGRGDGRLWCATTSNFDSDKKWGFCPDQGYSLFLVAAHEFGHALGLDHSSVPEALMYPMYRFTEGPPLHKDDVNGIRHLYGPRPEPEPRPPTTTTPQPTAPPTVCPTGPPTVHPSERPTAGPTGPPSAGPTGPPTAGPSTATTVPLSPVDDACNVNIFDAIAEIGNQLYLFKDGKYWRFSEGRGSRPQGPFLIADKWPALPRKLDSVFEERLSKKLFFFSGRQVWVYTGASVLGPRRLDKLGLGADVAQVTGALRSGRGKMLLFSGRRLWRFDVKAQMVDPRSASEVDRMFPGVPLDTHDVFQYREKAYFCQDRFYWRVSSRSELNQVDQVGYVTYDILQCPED
Chain of MMP-2 (P08253 110-660): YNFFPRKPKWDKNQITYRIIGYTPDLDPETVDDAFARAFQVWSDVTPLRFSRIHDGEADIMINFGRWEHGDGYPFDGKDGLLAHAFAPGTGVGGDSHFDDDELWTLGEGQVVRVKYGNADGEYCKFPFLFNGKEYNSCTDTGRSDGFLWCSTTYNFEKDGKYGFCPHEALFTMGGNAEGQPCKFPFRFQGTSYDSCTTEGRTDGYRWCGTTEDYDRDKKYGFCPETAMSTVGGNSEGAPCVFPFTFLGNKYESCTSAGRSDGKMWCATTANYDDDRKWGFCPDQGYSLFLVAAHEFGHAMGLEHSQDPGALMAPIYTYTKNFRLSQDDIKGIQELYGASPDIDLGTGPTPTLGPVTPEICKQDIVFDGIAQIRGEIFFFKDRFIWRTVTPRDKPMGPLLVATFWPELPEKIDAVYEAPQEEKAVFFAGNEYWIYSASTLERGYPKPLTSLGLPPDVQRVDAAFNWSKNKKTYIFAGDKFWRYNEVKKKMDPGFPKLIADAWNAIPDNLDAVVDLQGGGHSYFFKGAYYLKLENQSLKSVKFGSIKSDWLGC
Chain of MMP-3 (P08254 100-477): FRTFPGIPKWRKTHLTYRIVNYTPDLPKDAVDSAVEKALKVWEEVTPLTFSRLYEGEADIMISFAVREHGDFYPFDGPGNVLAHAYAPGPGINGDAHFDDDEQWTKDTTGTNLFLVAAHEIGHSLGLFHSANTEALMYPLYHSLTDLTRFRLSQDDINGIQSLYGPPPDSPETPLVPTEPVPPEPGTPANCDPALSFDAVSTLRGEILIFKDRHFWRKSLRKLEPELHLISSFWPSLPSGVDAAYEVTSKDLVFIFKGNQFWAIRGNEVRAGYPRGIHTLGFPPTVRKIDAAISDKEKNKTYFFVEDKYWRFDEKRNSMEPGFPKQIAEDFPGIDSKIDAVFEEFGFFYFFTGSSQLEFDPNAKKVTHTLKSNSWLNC
Chain of MMP-8 (P22894 101-467, species assumed): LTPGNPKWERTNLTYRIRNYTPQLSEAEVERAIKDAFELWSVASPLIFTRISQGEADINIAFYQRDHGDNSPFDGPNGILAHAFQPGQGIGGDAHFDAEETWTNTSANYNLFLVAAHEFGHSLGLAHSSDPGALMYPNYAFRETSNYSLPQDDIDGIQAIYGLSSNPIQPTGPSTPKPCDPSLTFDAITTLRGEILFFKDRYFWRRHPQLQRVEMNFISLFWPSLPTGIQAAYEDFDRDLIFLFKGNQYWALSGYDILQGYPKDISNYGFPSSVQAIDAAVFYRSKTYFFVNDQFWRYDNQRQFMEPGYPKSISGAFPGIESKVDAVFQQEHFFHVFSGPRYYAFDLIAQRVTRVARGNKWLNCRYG

In the case of `O=C(NO)c1ccccc1S(=O)(=O)c1ccc(-c2ccc(N3CCOCC3)cc2)cc1` [CAM12, N-Hydroxy-2-((4′-morpholino-[1,1′-biphenyl]-4-yl)sulfonyl) benzamide], the IC50 (MMP-2) is reported as 0.024 µM, the IC50 (MMP-1) is reported as 16.7 µM and the “re-epithelialization, topical Dex + CAM12 IP versus Dex + vehicle IP” value ([1]; WT mice, 100 nM CAM12 IP QD) is reported as “delayed re epithelialization”. The “expression of inflammatory cytokines and MMPs in the cornea” value [2] was “no change in expression of inflammatory cytokines and MMPs”, the IC50 (MMP-3) was 12 µM and the IC50 (MMP-9) was 2.3 µM. For the same compound, the IC50 (MMP-8) was 0.057 µM, the “corneal opacity score, topical Dex + CAM12 IP versus Dex + vehicle IP” value (corneal opacity [3]; WT mice, 100 nM CAM12 IP QD) was “higher corneal opacity score” and the “MMP-13 mRNA, CAM12 IP versus controls” value ([4]; WT mice, CM 2D and 5D, Dex topical treatment) was “higher MMP-13 mRNA transcripts”. For the same compound, the “IL-1β, IL-6, MMP-9 mRNA, CAM12 IP versus controls” value ([4]; WT mice, CM 2D and 5D, both Dex and BSS topical treatment) was “higher expression of IL-1β, IL-6, MMP-9”, the “MMP-1, -3 mRNA, CAM12 IP versus controls” value ([4]; WT mice, CM 5D, Dex topical treatment) was “higher levels of MMP-1, -3” and the IC50 (MMP-14 cd) was 1.14 µM.
For `C[C@@H]1C[C@H]2[C@@H]3CCC4=CC(=O)C=C[C@]4(C)[C@@]3(F)[C@@H](O)C[C@]2(C)[C@@]1(O)C(=O)CO` [Dex, Dexamethasone], the wound healing ([1]; Dex treated MMP-8KO mice) is given as 40%, the wound healing ([1]; Dex treated WT mice) is given as 75% and the “corneal opacity score, Dex versus BSS” value (corneal opacity [5]) is given as “significantly lower opacity scores”. The “corneal opacity score, Dex-treated MMP-8KO versus Dex treated WT” value (corneal opacity [3]; 5 days post injury) was “significantly higher corneal opacity scores”, the “corneal opacity, topical Dex + vehicle IP versus topical BSS + vehicle IP” value (corneal opacity [3]; WT mice) was “significantly lower corneal opacity” and the “influx of Gr-1+ cells into the wound site” value [6] was “inhibited the influx”. For the same compound, the “cytokine and MMP transcripts, Dex versus BSS” value ([4]; MMP-8KO mice, CM 2D post injury) was “decreased IL-6, MMP-3, and MMP-9”, the “cytokine and MMP transcripts, Dex versus BSS” value ([4]; MMP-8KO mice, CM 5D post injury) was “decreased MMP-9 and MMP-13” and the “IL-1β and CXCL1 expression” value ([4]; MMP-8KO mice, CM, topical Dex, in contrast to WT) was “lost its ability to decrease IL-1β and CXCL1 expression”. The “cytokine and MMP transcripts, Dex versus BSS” value ([4]; WT mice, CM 2D post injury) was “significantly decreased IL-6, MMPs -3, -9, -13 transcripts” and the “cytokine and MMP transcripts, Dex versus BSS” value ([4]; WT mice, CM 5D) was “significantly decreased IL-6 and MMP-3”.
